Data: patent publication US11332476B2, “Fms-like tyrosine kinase inhibitors” (3SM BIOTRON INC., priority 2018, dated 2022)
pIC50: −log10 of the molar value.

biological target: T1, FLT3 (Homo sapiens, UniProt P36888); assay: Inhibition of FLT3, 33P-ATP kinase assay with filter-binding detection; type: biochemical; conditions: 33P-ATP 10 uM, 2 hours at room temperature, filter-binding method
T1 sequence (P36888 27-993): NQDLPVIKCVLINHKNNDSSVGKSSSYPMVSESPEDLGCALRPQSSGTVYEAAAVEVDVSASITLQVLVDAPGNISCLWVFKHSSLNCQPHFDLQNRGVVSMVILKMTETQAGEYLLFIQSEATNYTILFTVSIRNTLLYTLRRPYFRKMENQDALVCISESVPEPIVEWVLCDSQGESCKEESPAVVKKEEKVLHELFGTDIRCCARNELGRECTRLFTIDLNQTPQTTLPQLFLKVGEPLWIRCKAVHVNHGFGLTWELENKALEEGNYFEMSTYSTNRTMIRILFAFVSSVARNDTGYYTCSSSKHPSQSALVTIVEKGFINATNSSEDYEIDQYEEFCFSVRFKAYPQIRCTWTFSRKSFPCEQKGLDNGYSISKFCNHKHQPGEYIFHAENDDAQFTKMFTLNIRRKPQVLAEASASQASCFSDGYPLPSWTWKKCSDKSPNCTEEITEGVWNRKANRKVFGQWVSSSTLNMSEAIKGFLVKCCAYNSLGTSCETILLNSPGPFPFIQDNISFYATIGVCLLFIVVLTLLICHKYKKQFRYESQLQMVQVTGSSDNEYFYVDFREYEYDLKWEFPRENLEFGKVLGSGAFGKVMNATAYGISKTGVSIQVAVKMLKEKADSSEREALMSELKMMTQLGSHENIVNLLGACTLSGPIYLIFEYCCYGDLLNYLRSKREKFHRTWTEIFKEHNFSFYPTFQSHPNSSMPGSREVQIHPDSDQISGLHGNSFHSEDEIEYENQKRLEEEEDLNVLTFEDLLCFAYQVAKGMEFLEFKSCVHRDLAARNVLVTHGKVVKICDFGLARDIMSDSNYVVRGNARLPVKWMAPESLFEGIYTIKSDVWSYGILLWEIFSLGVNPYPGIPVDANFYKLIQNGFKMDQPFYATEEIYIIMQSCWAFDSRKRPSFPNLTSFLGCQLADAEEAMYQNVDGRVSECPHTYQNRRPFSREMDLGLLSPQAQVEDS
Procedure: Prepare indicated substrate in freshly prepared Base Reaction Buffer (20 mM Hepes (pH 7.5), 10 mM MgCl2, 1 mM EGTA, 0.02% Brij35, 0.02 mg/ml BSA, 0.1 mM Na3VO4, 2 mM DTT, 1% DMSO). Deliver any required cofactors to the substrate solution above. Deliver indicated kinase into the substrate solution and gently mix. The testing compounds in DMSO was added into the kinase reaction mixture by Acoustic technology (Echo550; nanoliter range) and incubated for 20 minutes at room temperature. Deliver 33P-ATP (specific activity […]) into the reaction mixture to initiate the reaction. Incubate kinase reaction for 2 hours at room temperature. Reactions are spotted onto P81 ion exchange paper. Detect kinase activity by filter-binding method.
Inhibition of FLT3 with 4-Quinolone Derivatives

| SMILES | pIC50 |
| --- | --- |
| CCCNc1nc2ccccc2c2c(=O)c3cc(F)ccc3sc12 [compound 7706, 10-fluoro-6-(propylamino)-12H-thiochromeno[2,3-c]quinolin-12-one] | < 6.00 |
| NCCCNc1nc2ccccc2c2c(=O)c3cc(F)ccc3sc12 [compound 7707, 6-(3-aminopropylamino)-10-fluoro-12H-thiochromeno[2,3-c]quinolin-12-one] | > 7.29 |
| O=c1c2cc(F)ccc2sc2c(NCCCNCCO)nc3ccccc3c12 [compound 7708, 10-fluoro-6-(3-(2-hydroxyethylamino)propylamino)-12H-thiochromeno[2,3-c]quinolin-12-one] | 6.30 to 6.70 |
| COc1ccc2sc3c(N)nc4ccccc4c3c(=O)c2c1 [compound 7709, 6-Amino-10-methoxy-12H-thiochromeno[2,3-c]quinolin-12-one] | < 6.00 |
| CCCNc1nc2ccccc2c2c(=O)c3cc(OC)ccc3sc12 [compound 7710, 10-methoxy-6-(propylamino)-12H-thiochromeno[2,3-c]quinolin-12-one] | < 6.00 |
| COc1ccc2sc3c(NCCCN)nc4ccccc4c3c(=O)c2c1 [compound 7711, 6-(3-aminopropylamino)-10-methoxy-12H-thiochromeno[2,3-c]quinolin-12-one] | 6.70 to 7.29 |
| COc1ccc2sc3c(NCCCNCCO)nc4ccccc4c3c(=O)c2c1 [compound 7712, 6-(3-(2-hydroxyethylamino)propylamino)-10-methoxy-12H-thiochromeno[2,3-c]quinolin-12-one] | 6.00 to 6.30 |
| Nc1nc2ccccc2c2c(=O)c3cccc(Cl)c3sc12 [compound 7713, 6-Amino-8-chloro-12H-thiochromeno[2,3-c]quinolin-12-one] | < 6.00 |
| NCCCNc1nc2ccccc2c2c(=O)c3cccc(Cl)c3sc12 [compound 7715, 6-(3-aminopropylamino)-8-chloro-12H-thiochromeno[2,3-c]quinolin-12-one] | > 7.29 |
| O=c1c2cccc(Cl)c2sc2c(NCCCNCCO)nc3ccccc3c12 [compound 7716, 8-chloro-6-(3-(2-hydroxyethylamino)propylamino)-12H-thiochromeno[2,3-c]quinolin-12-one] | 6.00 to 6.30 |
| O=c1c2cc(Cl)ccc2sc2c(NCCO)nc3ccccc3c12 [compound 7717, 10-chloro-6-(2-hydroxyethylamino)-12H-thiochromeno[2,3-c]quinolin-12-one] | < 6.00 |
| O=c1c2cc(Cl)ccc2sc2c(OCCO)nc3ccccc3c12 [compound 7718, 10-chloro-6-(2-hydroxyethoxy)-12H-thiochromeno[2,3-c]quinolin-12-one] | < 6.00 |
| O=c1c2cc(Cl)ccc2sc2c(NCCCO)nc3ccccc3c12 [compound 7719, 10-chloro-6-(3-hydroxypropylamino)-12H-thiochromeno[2,3-c]quinolin-12-one] | < 6.00 |
| CNCCCNc1nc2ccccc2c2c(=O)c3cc(Cl)ccc3sc12 [compound 7721, 10-chloro-6-(3-(methylamino)propylamino)-12H-thiochromeno[2,3-c]quinolin-12-one] | 6.00 to 6.30 |
| CN(C)CCCNc1nc2ccccc2c2c(=O)c3cc(Cl)ccc3sc12 [compound 7722, 10-chloro-6-(3-(dimethylamino)propylamino)-12H-thiochromeno[2,3-c]quinolin-12-one] | < 6.00 |
| Nc1nc2ccccc2c2c(=O)c3ccc(Cl)cc3sc12 [compound 7723, 6-Amino-9-chloro-12H-thiochromeno[2,3-c]quinolin-12-one] | < 6.00 |
| Nc1nc2ccccc2c2c(=O)c3c(Cl)cccc3sc12 [compound 7724, 6-Amino-11-chloro-12H-thiochromeno[2,3-c]quinolin-12-one] | < 6.00 |
| CCCNc1nc2ccccc2c2c(=O)c3ccc(Cl)cc3sc12 [compound 7725, 9-chloro-6-(propylamino)-12H-thiochromeno[2,3-c]quinolin-12-one] | < 6.00 |
| O=c1c2cc(F)ccc2sc2c(OCCO)nc3ccccc3c12 [compound 7728, 10-fluoro-6-(2-hydroxyethoxy)-12H-thiochromeno[2,3-c]quinolin-12-one] | < 6.00 |

The remaining lines, values ahead:

| pIC50 | SMILES |
| --- | --- |
| < 6.00 | O=c1c2cc(F)ccc2sc2c(NCCCO)nc3ccccc3c12 [compound 7729, 10-fluoro-6-(3-hydroxypropylamino)-12H-thiochromeno[2,3-c]quinolin-12-one] |
| < 6.00 | COCCCNc1nc2ccccc2c2c(=O)c3cc(F)ccc3sc12 [compound 7730, 10-fluoro-6-(3-methoxypropylamino)-12H-thiochromeno[2,3-c]quinolin-12-one] |
| 6.30 to 6.70 | CNCCCNc1nc2ccccc2c2c(=O)c3cc(F)ccc3sc12 [compound 7731, 10-fluoro-6-(3-(methylamino)propylamino)-12H-thiochromeno[2,3-c]quinolin-12-one] |
| < 6.00 | CN(C)CCCNc1nc2ccccc2c2c(=O)c3cc(F)ccc3sc12 [compound 7732, 6-(3-(dimethylamino)propylamino)-10-fluoro-12H-thiochromeno[2,3-c]quinolin-12-one] |
| < 6.00 | COc1ccc2sc3c(NCCO)nc4ccccc4c3c(=O)c2c1 [compound 7733, 6-(2-Hydroxyethylamino)-10-methoxy-12H-thiochromeno[2,3-c]quinolin-12-one] |
| 6.00 to 6.30 | CNCCCNc1nc2ccccc2c2c(=O)c3cc(OC)ccc3sc12 [compound 7734, 10-methoxy-6-(3-(methylamino)propylamino)-12H-thiochromeno[2,3-c]quinolin-12-one] |
| < 6.00 | COc1ccc2sc3c(NCCCN(C)C)nc4ccccc4c3c(=O)c2c1 [compound 7735, 6-(3-(dimethylamino)propylamino)-10-methoxy-12H-thiochromeno[2,3-c]quinolin-12-one] |
| < 6.00 | CCNc1nc2ccccc2c2c(=O)c3cc(Cl)ccc3sc12 [compound 7736, 10-chloro-6-(ethylamino)-12H-thiochromeno[2,3-c]quinolin-12-one] |
| 6.70 to 7.29 | O=c1c2cc(F)ccc2sc2c(N3CCNCC3)nc3ccccc3c12 [compound 7739, 10-fluoro-6-(piperazin-1-yl)-12H-thiochromeno[2,3-c]quinolin-12-one] |
| 6.00 to 6.30 | CN1CCN(c2nc3ccccc3c3c(=O)c4cc(F)ccc4sc23)CC1 [compound 7740, 10-fluoro-6-(4-methylpiperazin-1-yl)-12H-thiochromeno[2,3-c]quinolin-12-one] |
| < 6.00 | COc1ccc2sc3c(NCCCO)nc4ccccc4c3c(=O)c2c1 [compound 7742, 10-methoxy-6-(3-hydroxypropylamino)-12H-thiochromeno[2,3-c]quinolin-12-one] |
| < 6.00 | COCCCNc1nc2ccccc2c2c(=O)c3cc(OC)ccc3sc12 [compound 7743, 10-methoxy-6-(3-methoxypropylamino)-12H-thiochromeno[2,3-c]quinolin-12-one] |
| 6.30 to 6.70 | CN(C)CCNc1nc2ccccc2c2c(=O)c3cc(F)ccc3sc12 [compound 7744, 6-(2-(dimethylamino)ethylamino)-10-fluoro-12H-thiochromeno[2,3-c]quinolin-12-one] |
| < 6.00 | COCCNc1nc2ccccc2c2c(=O)c3cc(F)ccc3sc12 [compound 7745, 10-fluoro-6-(2-methoxyethylamino)-12H-thiochromeno[2,3-c]quinolin-12-one] |
| < 6.00 | O=c1c2cc(F)ccc2sc2c(N3CCCC3)nc3ccccc3c12 [compound 7747, 10-fluoro-6-(pyrrolidin-1-yl)-12H-thiochromeno[2,3-c]quinolin-12-one] |
| < 6.00 | O=c1c2cc(F)ccc2sc2c(NCc3cccnc3)nc3ccccc3c12 [compound 7748, 10-fluoro-6-(pyridin-3-ylmethylamino)-12H-thiochromeno[2,3-c]quinolin-12-one] |
| < 6.00 | O=c1c2cc(F)ccc2sc2c(-n3cccc3)nc3ccccc3c12 [compound 7750, 10-fluoro-6-(1H-pyrrol-1-yl)-12H-thiochromeno[2,3-c]quinolin-12-one] |
| > 7.29 | CNCCNc1nc2ccccc2c2c(=O)c3cc(F)ccc3sc12 [compound 7752, 10-fluoro-6-(2-(methylamino)ethylamino)-12H-thiochromeno[2,3-c]quinolin-12-one] |
